Results from ChEMBL document CHEMBL1201862, “PubChem BioAssay data set” (2004).
Where “and” joins values, the source holds several entries; their conditions need not be identical. Equal entries are not always repeated. Calls of active or inactive are those of the source.

What was measured:
[1] = target: Mannose-6-phosphate isomerase (Homo sapiens, UniProt P34949); experiment: MPI enzyme activity inhibition – biochemical, fluorescence intensity, coupled assay, primary screen (AID 1209)
Vero = experiment: viability of Vero cells under compound – cytotoxicity control for flavivirus capping enzyme inhibitors (AID 588742); type: functional; conditions: Chlorocebus sabaeus
[2] = rise of 2N DNA cells, HeLa – IC50, dose response (AID 1117349); type: functional, cell-based
[3] = RKO cell viability reduction, dose response, CellTiter-Glo luminescence (AID 1117322); type: functional
[4] = cytotoxicity toward HCT116 cells – cell-based, CellTiter-Glo luminescence, IC50, dose response (AID 1117332); type: functional; conditions: HCT-116
[5] = SNU-C1 cell viability reduction, dose response, CellTiter-Glo luminescence (AID 1117323); type: functional, cell-based
[6] = rise of 4N DNA cells, HeLa – IC50, dose response (AID 1117351); type: functional, cell-based
[7] = cytotoxicity toward HT-29 cells – cell-based, CellTiter-Glo luminescence, IC50, dose response (AID 1117330); type: functional
[8] = Reduced DLD-1 viability, concentration-response, CellTiter-Glo luminescence (AID 1117352); type: functional
[9] = HCT116 cell viability decrease, GSK3B pretreatment – CellTiter-Glo, IC50, dose response (AID 1117339); type: functional; conditions: HCT-116
[10] = A High Throughput Confirmatory Assay used to Identify Novel Compounds that Inhibit Mycobacterium Tuberculosis in the absence of Glycerol.; type: functional
[11] = target: Sphingosine 1-phosphate receptor 2 (Homo sapiens, UniProt O95136); experiment: Dose Response Cell-Based Assay for Agonists of the Sphingosine 1-Phosphate Receptor 2 (S1P2): Purchased Analogues. [Related pubchem assays: 1192, 373, 439 ]; type: functional
Sphingosine 1-phosphate receptor 2, sequence (O95136 whole entry): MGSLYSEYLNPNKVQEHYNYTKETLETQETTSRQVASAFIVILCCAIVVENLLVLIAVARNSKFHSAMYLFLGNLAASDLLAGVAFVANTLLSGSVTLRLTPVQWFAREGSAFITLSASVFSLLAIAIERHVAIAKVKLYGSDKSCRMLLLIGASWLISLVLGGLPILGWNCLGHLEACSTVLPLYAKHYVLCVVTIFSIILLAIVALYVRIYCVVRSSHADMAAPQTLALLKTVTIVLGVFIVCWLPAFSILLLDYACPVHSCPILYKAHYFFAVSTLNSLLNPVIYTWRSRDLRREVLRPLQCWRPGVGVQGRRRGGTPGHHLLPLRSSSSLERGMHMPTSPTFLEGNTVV

[12] = target: Sphingosine 1-phosphate receptor 1 (Homo sapiens, UniProt P21453); experiment: Dose Response Cell-Based Assay for Agonists of the Sphingosine 1-Phosphate Receptor 1 (S1P1): Purchased Analogues. [Related pubchem assays: 1192, 373, 439 ]; type: functional
Sphingosine 1-phosphate receptor 1, sequence (P21453 whole entry): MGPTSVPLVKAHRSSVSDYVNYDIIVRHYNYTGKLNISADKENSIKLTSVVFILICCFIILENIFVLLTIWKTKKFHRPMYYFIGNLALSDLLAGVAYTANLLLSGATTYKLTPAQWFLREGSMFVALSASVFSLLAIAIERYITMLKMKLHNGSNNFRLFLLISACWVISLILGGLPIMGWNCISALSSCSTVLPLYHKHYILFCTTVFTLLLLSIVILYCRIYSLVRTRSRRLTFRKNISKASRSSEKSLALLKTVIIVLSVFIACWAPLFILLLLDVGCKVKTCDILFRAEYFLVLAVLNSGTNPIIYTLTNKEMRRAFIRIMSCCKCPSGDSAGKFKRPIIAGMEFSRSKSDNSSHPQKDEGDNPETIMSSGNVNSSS

[13] = target: Sphingosine 1-phosphate receptor 3 (Homo sapiens, UniProt Q99500); experiment: Dose Response Cell-Based Assay for Agonists of the Sphingosine 1-Phosphate Receptor 3 (S1P3): Purchased Analogues. [Related pubchem assays: 373, 439 ]; type: functional
Sphingosine 1-phosphate receptor 3, sequence (Q99500 whole entry): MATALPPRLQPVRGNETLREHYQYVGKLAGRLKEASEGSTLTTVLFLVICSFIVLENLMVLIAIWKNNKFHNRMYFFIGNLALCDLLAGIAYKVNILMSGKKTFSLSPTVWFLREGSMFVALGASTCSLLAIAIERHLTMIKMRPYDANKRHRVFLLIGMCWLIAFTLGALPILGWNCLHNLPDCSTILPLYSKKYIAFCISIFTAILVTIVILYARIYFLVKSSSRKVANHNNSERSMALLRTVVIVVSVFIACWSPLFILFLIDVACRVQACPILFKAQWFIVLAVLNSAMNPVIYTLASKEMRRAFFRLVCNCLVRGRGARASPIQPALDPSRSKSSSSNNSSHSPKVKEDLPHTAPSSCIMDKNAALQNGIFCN

[14] = Luminescent dose response cell-based high throughput screening assay for inhibitors of the Janus kinase 2 mutant JAK2V617F. [Related pubchem assays: 1446 (Primary screen.), 1521 (Confirmation assay.), 1486 (Counter screen.)]; type: functional
[15] = target: Epstein-Barr nuclear antigen 1 (Epstein-Barr virus (strain B95-8) (HHV-4) (Human herpesvirus 4), UniProt P03211); experiment: inhibition of EBV nuclear antigen 1 DNA binding – biochemical, fluorescence polarization, 1536-well, dose response (AID 2381); parameters: species or system human gammaherpesvirus 4;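 note: fluorescence polarization of a Cy5 DNA probe bound by EBNA-1 protein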
Epstein-Barr nuclear antigen 1, sequence (P03211 whole entry): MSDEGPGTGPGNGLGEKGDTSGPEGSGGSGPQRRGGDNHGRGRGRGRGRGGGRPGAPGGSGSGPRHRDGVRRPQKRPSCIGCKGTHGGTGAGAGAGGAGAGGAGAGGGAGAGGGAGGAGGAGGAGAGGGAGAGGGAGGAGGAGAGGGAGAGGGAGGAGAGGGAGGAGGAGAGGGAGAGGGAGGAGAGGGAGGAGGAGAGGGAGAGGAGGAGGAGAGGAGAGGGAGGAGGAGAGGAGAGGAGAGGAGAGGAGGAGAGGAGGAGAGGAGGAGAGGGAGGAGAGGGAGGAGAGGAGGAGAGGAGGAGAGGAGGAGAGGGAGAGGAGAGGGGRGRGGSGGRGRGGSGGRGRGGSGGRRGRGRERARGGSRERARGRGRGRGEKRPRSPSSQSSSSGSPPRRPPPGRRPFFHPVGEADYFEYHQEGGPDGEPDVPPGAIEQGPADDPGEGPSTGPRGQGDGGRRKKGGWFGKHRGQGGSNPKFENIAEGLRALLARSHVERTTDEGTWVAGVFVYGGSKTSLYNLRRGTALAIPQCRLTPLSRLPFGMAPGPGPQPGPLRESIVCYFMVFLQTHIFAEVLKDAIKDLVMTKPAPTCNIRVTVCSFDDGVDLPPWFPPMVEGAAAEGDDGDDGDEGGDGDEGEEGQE

[16] = target: Lytic switch protein BZLF1 (Epstein-Barr virus (strain B95-8) (HHV-4) (Human herpesvirus 4), UniProt P03206); experiment: inhibition of BZLF1 ZTA DNA binding – biochemical, fluorescence polarization, Epstein-Barr virus, 1536-well, counter-screen for EBNA-1 inhibitor project, dose response (AID 2377); parameters: species or system human gammaherpesvirus 4;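 note: fluorescence polarization of Cy5-labelled ZRE DNA probe bound by purified Zta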
Lytic switch protein BZLF1, sequence (P03206 whole entry): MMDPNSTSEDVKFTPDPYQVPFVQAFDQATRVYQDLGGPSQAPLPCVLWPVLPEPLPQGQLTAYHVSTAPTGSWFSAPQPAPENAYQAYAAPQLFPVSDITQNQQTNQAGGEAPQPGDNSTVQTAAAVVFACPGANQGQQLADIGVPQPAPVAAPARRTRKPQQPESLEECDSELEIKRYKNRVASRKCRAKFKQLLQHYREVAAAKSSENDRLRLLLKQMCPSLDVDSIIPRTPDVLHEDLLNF

Bcl-2-related protein A1 [17] = target: T1, Bcl-2-related protein A1 (Mus musculus, UniProt Q07440); experiment: displacement of Bid BH3 peptide from Bfl-1 – biochemical, fluorescence polarization, FITC-Bid, mouse, primary screen (AID 432)
T1 sequence (Q07440 whole entry): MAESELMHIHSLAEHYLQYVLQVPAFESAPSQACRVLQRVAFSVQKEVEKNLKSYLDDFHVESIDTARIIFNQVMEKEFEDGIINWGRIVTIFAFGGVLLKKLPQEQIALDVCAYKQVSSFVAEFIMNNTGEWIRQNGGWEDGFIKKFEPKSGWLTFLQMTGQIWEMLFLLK

Bcl-2-related protein A1 [18] = target: T1, Bcl-2-related protein A1; experiment: small-molecule antagonists of Bfl-1/BH3 interaction – biochemical, TR-FRET, mouse Bfl-1, confirmation (AID 621);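 note: TR-FRET binding of GST-Bfl-1 to FITC-labelled Bid peptide via terbium antibody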
fMet-Leu-Phe receptor = fMet-Leu-Phe receptor (Homo sapiens, UniProt P21462); experiment: formyl peptide receptor binders – dose response (AID 519); type: functional
fMet-Leu-Phe receptor, sequence (P21462 whole entry): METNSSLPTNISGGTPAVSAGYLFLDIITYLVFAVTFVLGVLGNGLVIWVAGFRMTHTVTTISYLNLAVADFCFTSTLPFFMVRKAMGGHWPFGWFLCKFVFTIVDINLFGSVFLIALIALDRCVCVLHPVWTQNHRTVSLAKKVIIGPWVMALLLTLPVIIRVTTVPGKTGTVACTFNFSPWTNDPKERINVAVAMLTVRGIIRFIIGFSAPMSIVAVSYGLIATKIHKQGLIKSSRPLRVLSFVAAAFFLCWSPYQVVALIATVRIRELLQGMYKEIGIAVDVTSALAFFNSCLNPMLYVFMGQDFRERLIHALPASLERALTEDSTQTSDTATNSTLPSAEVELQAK

[19] = target: T2, Tyrosine-protein phosphatase non-receptor type 7 (Homo sapiens, UniProt P35236); experiment: HePTP tyrosine phosphatase activity blockers – biochemical, absorbance, leukemia target, primary screen (AID 521); type: functional
T2 sequence (P35236 whole entry): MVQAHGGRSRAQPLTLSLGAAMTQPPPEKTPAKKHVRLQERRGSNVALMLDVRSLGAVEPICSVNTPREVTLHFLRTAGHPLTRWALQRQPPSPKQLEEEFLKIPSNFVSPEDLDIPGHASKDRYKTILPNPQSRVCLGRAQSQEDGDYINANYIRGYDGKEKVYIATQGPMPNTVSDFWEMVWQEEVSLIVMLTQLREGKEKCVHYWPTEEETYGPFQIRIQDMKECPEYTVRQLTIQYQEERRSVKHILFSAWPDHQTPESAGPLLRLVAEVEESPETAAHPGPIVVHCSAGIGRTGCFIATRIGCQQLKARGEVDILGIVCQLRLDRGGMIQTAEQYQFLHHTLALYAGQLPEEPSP

[20] = target: Voltage-gated inwardly rectifying potassium channel KCNH2 (Homo sapiens, UniProt Q12809); experiment: concentration-dependent hERG rescue from blockers – cell-based, thallium flux, dose response (AID 2121); type: ADME
Voltage-gated inwardly rectifying potassium channel KCNH2, sequence (Q12809 whole entry): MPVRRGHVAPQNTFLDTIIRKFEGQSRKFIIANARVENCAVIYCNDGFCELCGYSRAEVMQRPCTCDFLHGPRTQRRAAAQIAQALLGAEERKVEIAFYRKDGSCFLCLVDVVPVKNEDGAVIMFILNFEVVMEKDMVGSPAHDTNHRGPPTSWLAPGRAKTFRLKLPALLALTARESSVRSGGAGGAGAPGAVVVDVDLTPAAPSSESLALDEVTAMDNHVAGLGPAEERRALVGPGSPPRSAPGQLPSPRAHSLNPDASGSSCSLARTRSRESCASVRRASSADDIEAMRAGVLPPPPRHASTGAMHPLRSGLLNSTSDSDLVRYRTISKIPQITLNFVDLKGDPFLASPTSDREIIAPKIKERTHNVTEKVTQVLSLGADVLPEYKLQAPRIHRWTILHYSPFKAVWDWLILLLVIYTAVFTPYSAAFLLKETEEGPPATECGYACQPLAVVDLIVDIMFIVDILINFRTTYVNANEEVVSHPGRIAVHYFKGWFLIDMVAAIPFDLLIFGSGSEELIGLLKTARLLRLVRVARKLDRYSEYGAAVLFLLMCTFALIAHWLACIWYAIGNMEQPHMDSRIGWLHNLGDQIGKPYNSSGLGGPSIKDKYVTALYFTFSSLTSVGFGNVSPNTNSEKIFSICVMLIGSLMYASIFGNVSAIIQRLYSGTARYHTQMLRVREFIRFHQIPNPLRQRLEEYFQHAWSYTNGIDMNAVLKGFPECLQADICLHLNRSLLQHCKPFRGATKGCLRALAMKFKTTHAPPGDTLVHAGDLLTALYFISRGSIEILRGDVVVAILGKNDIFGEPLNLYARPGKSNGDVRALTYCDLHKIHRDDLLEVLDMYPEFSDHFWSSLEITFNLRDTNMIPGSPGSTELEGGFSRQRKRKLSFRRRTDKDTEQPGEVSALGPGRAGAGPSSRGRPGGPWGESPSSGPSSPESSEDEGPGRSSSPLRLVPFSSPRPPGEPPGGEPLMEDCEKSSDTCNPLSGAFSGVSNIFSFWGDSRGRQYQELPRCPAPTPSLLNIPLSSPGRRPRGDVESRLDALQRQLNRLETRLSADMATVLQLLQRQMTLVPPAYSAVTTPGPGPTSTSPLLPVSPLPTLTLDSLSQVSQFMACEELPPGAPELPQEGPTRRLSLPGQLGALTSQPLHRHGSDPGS

[21] = target: T3, Short transient receptor potential channel 4 (Mus musculus, UniProt Q9QUQ5); experiment: block of DAMGO-driven TRPC4 calcium entry – cell-based, HEK293 TRPC4/mu-opioid, Fluo-4 calcium, dose response (AID 434942); type: functional;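 note: potency of inhibitors blocking the TRPC4 calcium response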
T3 sequence (Q9QUQ5 whole entry): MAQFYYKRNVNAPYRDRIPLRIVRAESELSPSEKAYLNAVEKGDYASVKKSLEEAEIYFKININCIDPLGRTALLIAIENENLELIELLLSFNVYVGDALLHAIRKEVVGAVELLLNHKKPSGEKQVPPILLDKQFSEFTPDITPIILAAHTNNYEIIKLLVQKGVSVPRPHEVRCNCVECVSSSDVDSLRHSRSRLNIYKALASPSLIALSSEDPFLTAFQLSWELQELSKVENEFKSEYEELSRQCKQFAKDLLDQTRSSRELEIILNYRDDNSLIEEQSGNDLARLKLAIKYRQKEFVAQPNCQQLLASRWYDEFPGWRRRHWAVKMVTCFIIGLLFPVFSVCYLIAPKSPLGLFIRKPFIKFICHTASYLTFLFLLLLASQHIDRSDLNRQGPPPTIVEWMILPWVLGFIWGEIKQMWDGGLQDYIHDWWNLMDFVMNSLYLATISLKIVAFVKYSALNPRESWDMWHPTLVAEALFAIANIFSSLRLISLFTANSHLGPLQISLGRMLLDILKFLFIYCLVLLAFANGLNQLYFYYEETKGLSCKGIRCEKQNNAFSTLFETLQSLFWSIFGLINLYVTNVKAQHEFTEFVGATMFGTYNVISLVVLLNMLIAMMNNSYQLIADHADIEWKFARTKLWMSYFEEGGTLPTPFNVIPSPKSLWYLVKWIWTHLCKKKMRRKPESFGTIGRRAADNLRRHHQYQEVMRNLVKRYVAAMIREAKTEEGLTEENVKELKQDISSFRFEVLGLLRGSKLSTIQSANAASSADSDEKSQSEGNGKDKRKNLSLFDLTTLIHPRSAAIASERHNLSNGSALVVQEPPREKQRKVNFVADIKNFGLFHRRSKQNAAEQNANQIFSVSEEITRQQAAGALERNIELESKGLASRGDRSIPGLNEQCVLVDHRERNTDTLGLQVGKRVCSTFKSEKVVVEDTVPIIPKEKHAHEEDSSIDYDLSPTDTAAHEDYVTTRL

Mannose-6-phosphate isomerase, sequence (P34949 whole entry): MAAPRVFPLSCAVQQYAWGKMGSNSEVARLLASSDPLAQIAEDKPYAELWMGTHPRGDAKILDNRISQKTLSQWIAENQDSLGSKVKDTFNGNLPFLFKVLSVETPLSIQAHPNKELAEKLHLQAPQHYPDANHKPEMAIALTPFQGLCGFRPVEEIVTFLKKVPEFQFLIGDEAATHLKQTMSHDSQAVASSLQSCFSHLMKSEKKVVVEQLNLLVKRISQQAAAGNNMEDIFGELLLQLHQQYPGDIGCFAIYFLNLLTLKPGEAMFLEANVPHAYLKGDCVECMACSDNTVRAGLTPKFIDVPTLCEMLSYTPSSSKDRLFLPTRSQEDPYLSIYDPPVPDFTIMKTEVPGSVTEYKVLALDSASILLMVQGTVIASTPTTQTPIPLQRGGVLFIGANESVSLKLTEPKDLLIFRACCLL

**Q.** What does the source list for CC(=O)Oc1ccc2c(=O)c(Oc3ccccc3)c(C)oc2c1OC(C)=O?
**A.** IC50 [1]: 44.8 µM (active); CC50 (Vero): 38.1 µM (active)

**Q.** Which results are given for CC(C)C[C@H](NC(=O)[C@H](CCc1ccccc1)NC(=O)CN1CCOCC1)C(=O)N[C@@H](Cc1ccccc1)C(=O)N[C@@H](CC(C)C)C(=O)[C@@]1(C)CO1 [CARFILZOMIB]?
**A.** IC50 [2]: > 10 µM (inactive); IC50 [3]: 0.00394 µM (active); IC50 [4]: 0.00558 µM (active); IC50 [5]: 0.00147 µM (active); IC50 [6]: > 10 µM (inactive); IC50 [7]: 0.00318 µM (active); IC50 [8]: 0.00696 µM (active); IC50 [9]: 0.00173 µM (active)

**Q.** With CC(C)OC(=O)c1ccc(NC(=S)NC(=O)c2cncc(Br)c2)cc1 as the compound, how does the IC50 [10] read?
**A.** > 100 µM (active)

**Q.** Which results are given for Cc1cc(C(=O)N2C(C)CCCC2C)no1 (stereo not drawn)?
**A.** EC50 [11]: > 10 µM (not active); EC50 [12]: > 50 µM (not active); EC50 [13]: > 50 µM (not active)

**Q.** With Cc1ccc(Nc2nc(N)nc(CCl)n2)cc1 as the compound, how does the IC50 [14] read?
**A.** 1.75 µM (active)

**Q.** For COc1cccc(OC)c1C(=O)Nc1nc2cc3c(cc2s1)OCO3, which IC50 [15] is on record?
**A.** 15.5 µM (not active)

**Q.** What about the IC50 [16] of the same compound?
**A.** > 111 µM (not active)

**Q.** Which IC50 (Bcl-2-related protein A1 [17]) does the source give for O=C(C1=C(O)C(=O)N(c2ncccn2)C1c1cccc(Cl)c1)c1ccco1 (stereo not drawn) here?
**A.** > 100 µM (not active)

**Q.** What about the IC50 (Bcl-2-related protein A1 [18]) of the same compound?
**A.** > 100 µM (not active)

**Q.** And the Ki (fMet-Leu-Phe receptor)?
**A.** > 66.7 µM (inactive)

**Q.** With CC(C)(C)OC(=O)N1CC(O)CC1C(=O)OCC(=O)c1ccc(Cl)cc1 (stereo not drawn) as the compound, how does the IC50 [19] read?
**A.** > 100 µM (not active)

**Q.** With O=C(O)c1ccc(Cl)cc1Nc1nc2cc(Cl)ccc2o1 as the compound, how does the EC50 [20] read?
**A.** 11.3 µM (active) and 12 µM (active)

**Q.** What about the EC50 [21] of the same compound?
**A.** 5.31 µM (active)
